Measurements taken from the supplement of paper PMC10307832.

Legend:
Experiment in all cases: relative viability (nuclei count vs DMSO), 5 days (fraction); higher = more cells survive
Vandetanib = compound: COc1cc2/c(=N/c3ccc(Br)cc3F)nc[nH]c2cc1OCC1CCN(C)CC1 [Vandetanib]
Outline: (§1)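 Lung cancer cell lines received five library-drug doses (not always all listed) spaced by √10, pinned on vehicle-anchored 1536-well plates after an overnight stay at 37 °C. Five days later, with no medium change, nuclei were Hoechst-stained, imaged at 4× and counted with MetaXpress. Viability is treated-well nuclei relative to vehicle-well nuclei, as a median across plates. Passing plates had control CV below 25% and at least one doubling.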

[1] = compound: C1=CC=C2C(=C1)N=C(S2)C(C#N)C3=NC(=NC=C3)NCCC4=CN=CC=C4
Outline: as §1

NVP-TAE684 = compound: COc1cc(N2CCC(N3CCN(C)CC3)CC2)ccc1Nc1ncc(Cl)c(Nc2ccccc2S(=O)(=O)C(C)C)n1 [NVP-TAE684]
Outline: as §1

CUDC-101 = compound: C#Cc1cccc(Nc2ncnc3cc(OC)c(OCCCCCCC(=O)NO)cc23)c1 [CUDC-101]
Outline: as §1

Cell Line	relative viability (Vandetanib; 0.02 µM)	relative viability (Vandetanib; 0.06325 µM)	relative viability (Vandetanib; 0.2 µM)	relative viability (Vandetanib; 0.6325 µM)	relative viability (Vandetanib; 2 µM)	relative viability ([1]; 0.005 µM)	relative viability ([1]; 0.05 µM)	relative viability ([1]; 0.1581 µM)	relative viability ([1]; 0.5 µM)	relative viability (NVP-TAE684; 0.2 µM)	relative viability (NVP-TAE684; 0.6325 µM)	relative viability (NVP-TAE684; 2 µM)	relative viability (CUDC-101; 0.01 µM)	relative viability (CUDC-101; 0.03162 µM)	relative viability (CUDC-101; 0.1 µM)	relative viability (CUDC-101; 0.3162 µM)	relative viability (CUDC-101; 1 µM)	relative viability ([1]; 0.01581 µM)
NCI-H1395	0.909	0.954	0.856	0.938	0.795	0.876	0.922	1.11	0.995	1.01	0.777	0.977	1.05	0.883	0.952	0.974	0.648	–
NCI-H2009	0.963	0.972	1.01	1.03	1.05	0.938	1.04	1.04	1.02	0.993	0.936	0.762	1	0.999	1.04	1.04	0.914	1
NCI-H1437	0.937	0.968	0.955	1.03	0.981	0.901	0.988	1.1	0.966	–	0.957	0.758	0.994	0.985	1.01	1.06	0.981	0.947
NCI-H2087	0.934	0.938	1.02	1.15	1.14	0.993	1.03	1.13	0.981	1.09	–	0.989	1.24	1.06	0.95	1.1	0.884	1.03
LCLC-103H	0.959	0.92	1.05	0.899	0.931	0.928	0.955	1.07	0.947	1.08	0.956	0.938	0.987	1.01	1.06	1.05	0.926	0.952
NCI-H1623	0.891	0.905	0.949	0.938	0.825	0.981	0.837	0.96	0.846	0.945	0.868	0.852	1.11	0.858	0.82	0.813	0.552	1.01
PC-14	0.987	0.833	0.574	0.369	0.223	0.919	0.95	1.15	0.902	0.998	1.01	0.921	1.12	0.837	0.602	0.537	0.273	1.07
H3255	0.998	0.934	0.845	0.573	0.355	1.04	0.964	1.06	0.981	0.947	0.859	0.754	1	0.912	0.454	0.658	0.273	0.922
NCI-H2342	1	0.964	0.953	0.95	0.949	0.82	0.874	1	0.938	0.917	0.849	0.647	1.06	0.931	0.973	0.996	0.923	0.978
NCI-H460	0.964	0.992	1.02	1	0.963	0.925	0.995	1.14	0.934	1.08	1.02	–	1	0.902	0.977	1.01	0.996	0.999
HOP-62	0.947	1.02	1.01	1.02	1.04	0.951	1.01	1.24	1.07	–	1	1.04	0.971	1.07	1.06	1	0.941	1.08
HCC-78	1.02	0.841	0.958	0.974	0.853	1.08	1.07	1.07	0.996	0.824	0.658	0.495	1.01	0.918	0.954	0.809	0.416	0.92
NCI-H2085	1.04	0.99	0.99	1.01	0.931	0.928	0.977	1.01	0.998	0.986	–	0.914	1.01	1.03	1.02	0.981	0.893	0.983
COR-L23	0.974	0.93	1.02	1.08	1.06	0.944	1.05	1.2	0.884	0.972	1	0.481	1.11	0.99	1.05	0.974	0.641	1.13
EBC-1	0.93	0.959	1.07	1.09	1.03	1.02	0.803	1.06	0.858	0.836	1.03	0.744	1	0.89	0.975	0.785	0.582	1.15
HARA	1.13	0.939	0.914	0.899	0.942	1.1	0.994	1.09	0.93	–	0.838	0.667	1.01	0.942	0.774	0.861	0.39	0.769
201T	0.951	0.951	1.01	0.934	0.941	0.963	1.01	1.03	0.89	1.05	0.958	0.875	0.984	0.97	0.964	1.03	0.829	0.876
EMC-BAC-2	1.03	0.981	0.929	1.02	0.918	1.09	0.952	1.04	0.97	0.966	0.894	0.679	1.05	0.966	1.13	0.9	0.616	0.976
NCI-H441	1.03	0.948	0.983	1.15	0.939	–	1	1.27	0.871	0.898	1.15	0.587	1.04	1.09	0.981	1.13	0.844	1.12
NCI-H1944	0.909	0.92	0.902	0.813	0.965	0.914	0.958	1.03	0.951	1.08	0.939	0.94	0.981	0.884	0.899	0.817	0.574	0.956
NCI-H727	0.894	0.809	0.906	0.796	0.681	0.904	0.832	1.13	0.78	0.806	0.91	0.515	0.954	0.869	1.04	0.827	0.629	0.903
NCI-H1993	1	0.922	0.944	0.871	0.754	0.901	0.929	1.04	0.842	0.813	0.885	0.703	1.04	0.916	0.833	0.95	0.664	0.882
ChaGo-K-1	1.01	1.01	1.01	0.998	0.984	0.984	0.99	1.05	0.939	0.98	0.878	0.843	0.923	0.965	1.02	1.06	0.787	0.929
NCI-H3122	0.928	1	1.02	0.984	0.978	0.958	0.98	1.03	0.991	0.236	0.164	0.126	0.942	0.995	1.03	1.01	0.994	0.977
NCI-H1651	0.943	0.961	0.979	0.96	0.893	0.884	1.14	1.07	0.984	0.946	0.966	0.868	1.05	0.984	0.991	1.08	0.932	1.02
NCI-H1355	0.997	0.892	1.01	1.02	0.957	0.934	0.986	1.1	0.912	0.961	0.921	0.75	1.03	0.957	0.967	0.976	0.883	0.931
NCI-H596	0.937	0.876	0.954	0.993	1	0.791	1.01	1.07	0.928	0.959	1.03	–	0.97	1.01	1.04	1.05	0.88	0.962
NCI-H23	1.09	0.975	0.894	0.926	0.901	0.691	0.967	1.24	1.02	0.989	0.796	0.538	1.13	1	1.1	1.11	0.922	0.941
HCC-366	0.966	1.01	1.03	1.01	1.02	0.883	0.995	1.05	1.05	1.01	0.979	1.07	1.03	0.997	1.01	1.03	0.931	1.06
NCI-H2126	0.96	0.91	0.965	0.906	0.903	0.912	0.946	1.05	0.864	0.991	0.959	0.684	1.04	0.957	1.03	0.94	0.81	0.977
